PMC5844530, “Fosmetpantotenate (RE-024), a phosphopantothenate replacement therapy for pantothenate kinase-associated neurodegeneration: Mechanism of action and efficacy in nonclinical models” (PLoS ONE, 2018)
Where “and” joins values, the source holds several entries; their conditions need not be identical. Equal values may be shown once.

How the values were obtained:
[1] = Pharmacokinetics in whole blood, CD-1 mice; conditions: for % Parent AUCAll: CD1 mouse, metabolite AUCall/Parent AUCall x 100; for Whole Blood Conc. of compound 2: CD-1 mice; for concentration at 0.083 h / concentration at 2 h / concentration at 4 h / concentration at 8 h / concentration at 0.333 h / concentration at 0.5 h / concentration at 1 h: male, CD-1, mouse, whole blood, po, Whole Blood Conc. of compound 2, CD-1 mice
Protocol: The whole blood samples (0.5 mL) were collected into syringes that were prefilled with 2.5 mL of ice-cold 0.1% formic acid in acetonitrile. The volume ratio of the whole blood to 0.1% formic acid in acetonitrile was 1/5 (v/v). Samples were frozen (-70°C) until analyzed by LC-MS/MS.
Standard curves and quality control (QC) samples were prepared fresh on the day of analysis by serial dilution of the standard mixture in quenched whole blood (1 part of blood to 5 parts of 0.1% formic acid in acetonitrile) and centrifuged. […] The frozen study samples were thawed in an ice/water bath and centrifuged. Supernatant (50 μL) from standards, QC samples, and study samples was transferred to a 96-well plate and dried completely under nitrogen. The dried residues were reconstituted with 100 μL of 0.1% formic acid in water containing internal standard (5 ng/mL of ^15N/^13C3-RE-024-02) and analyzed by LC-MS/MS.
LC-MS/MS analysis for blood pharmacokinetic samples: Samples were analyzed using an Agilent 1100 binary pump (Agilent Technologies, Santa Clara, CA, USA), connected to an AB Sciex API 6500 mass spectrometer (SCIEX, Framingham, MA, USA). An electrospray ionization source was used, scanning in the positive mode. […] The chromatography column was a Varian Metasil AQ 120–5 C18 column, 5 μm, 50 x 2.00 mm (Part No. A0530050X020) at ambient temperature, with a 0.5 mL/min flow rate and a 20 μL injection volume. Mobile phase (A) consisted of 0.1% formic acid in water; while mobile phase (B) consisted of 0.1% formic acid in acetonitrile:water (9:1, v/v).
Quantitation of in vivo samples: Peak areas were integrated using Analyst software (AB Sciex, Concord, Ontario, Canada). […] Calibration standards (at a minimum 7 per curve) were fit by linear regression with (1/x^2) weighting. QC samples were used (triplicate) at 3 concentrations for all tandem mass spectrometry (MS/MS) runs.
Pharmacokinetic calculations: PK analysis was performed using Phoenix WinNonlin®, Build 6.3.0.395 (Certara, Princeton, NJ, USA) using a non-compartmental model (PO dose = model 200 for extravascular dosing). […] Post-dose concentrations below the limit of quantitation (BLQ) were omitted from calculation.

[2] = Pharmacokinetics in whole blood, cynomolgus monkeys
[3] = Pharmacokinetics in whole blood, Sprague-Dawley rats; conditions: for % Parent AUCAll: Sprague-Dawley rat, metabolite AUCall/Parent AUCall x 100; for Whole Blood Conc. of compound 2: Sprague-Dawley rats; for concentration at 4 h / concentration at 8 h / concentration at 2 h / concentration at 0.5 h: Sprague-Dawley, rat, whole blood, po, Whole Blood Conc. of compound 2, Sprague-Dawley rats
[4] = 100 mg/kg, single 100 mg/kg RE-024-02 PO, LLOQ 3 ng/mL
[5] = 100 mg/kg, single 100 mg/kg RE-024-02 PO, LLOQ 10.2 nM

- % Parent AUCAll ([1]; 100 mg/kg PO): 8,550%
- % Parent AUCAll ([1]; 300 mg/kg PO): 29,800%
- % Parent AUCAll ([1]; 700 mg/kg PO): 7,220%
- Whole Blood Conc. of compound 2 ([1]; single 300 mg/kg RE-024-02 PO, 0.333 hr, LLOQ 10.2 nM, 300 mg/kg): 1676.7 nM and 1863.6 nM and 1325.1 nM
- Whole Blood Conc. of compound 2 ([1]; single 300 mg/kg RE-024-02 PO, 0.5 hr, LLOQ 10.2 nM, 300 mg/kg): 1599.4 nM and 1111.7 nM and 955.2 nM
- Whole Blood Conc. of compound 2 ([1]; single 300 mg/kg RE-024-02 PO, 4 hr, LLOQ 3 ng/mL, 300 mg/kg): 15.4 ng/mL and 22.8 ng/mL and 26.2 ng/mL
- Whole Blood Conc. of compound 2 ([1]; single 300 mg/kg RE-024-02 PO, 4 hr, LLOQ 10.2 nM, 300 mg/kg): 52.2 nM and 77.2 nM and 88.6 nM
- Whole Blood Conc. of compound 2 ([1]; single 700 mg/kg RE-024-02 PO, 0.333 hr, LLOQ 3 ng/mL, 700 mg/kg): 1656 ng/mL
- Whole Blood Conc. of compound 2 ([1]; single 700 mg/kg RE-024-02 PO, 0.333 hr, LLOQ 10.2 nM, 700 mg/kg): 5609.2 nM
- Whole Blood Conc. of compound 2 ([1]; single 700 mg/kg RE-024-02 PO, 1 hr, LLOQ 3 ng/mL, 700 mg/kg): 318 ng/mL and 373.2 ng/mL and 381 ng/mL
- Whole Blood Conc. of compound 2 ([1]; single 700 mg/kg RE-024-02 PO, 1 hr, LLOQ 10.2 nM, 700 mg/kg): 1077.1 nM and 1264.1 nM and 1290.5 nM
- Whole Blood Conc. of compound 2 ([1]; single 700 mg/kg RE-024-02 PO, 4 hr, LLOQ 3 ng/mL, 700 mg/kg): 84 ng/mL and 92.4 ng/mL and 88.2 ng/mL
- Whole Blood Conc. of compound 2 ([1]; single 700 mg/kg RE-024-02 PO, 4 hr, LLOQ 10.2 nM, 700 mg/kg): 284.5 nM and 313 nM and 298.8 nM
- concentration at 0.083 h [1, 4]: 17.4 ng/mL
- concentration at 0.083 h [1, 5]: 58.9 nM
- concentration at 2 h [1, 4]: 5.1 ng/mL
- concentration at 2 h [1, 5]: 17.3 nM
- concentration at 4 h ([1]; 100 mg/kg, single 100 mg/kg RE-024-02 PO, 4 hr, LLOQ 3 ng/mL): 3.5 ng/mL
- concentration at 4 h ([1]; 100 mg/kg, single 100 mg/kg RE-024-02 PO, 4 hr, LLOQ 10.2 nM): 11.7 nM
- concentration at 8 h [1, 4]: 3.5 ng/mL
- concentration at 8 h [1, 5]: 11.9 nM
- concentration at 0.333 h ([1]; 300 mg/kg, single 300 mg/kg RE-024-02 PO, 0.333 hr, LLOQ 3 ng/mL): 443 ng/mL
- concentration at 0.333 h ([1]; 300 mg/kg, single 300 mg/kg RE-024-02 PO, 0.333 hr, LLOQ 10.2 nM): 1500 nM
- concentration at 0.5 h ([1]; 300 mg/kg, single 300 mg/kg RE-024-02 PO, 0.5 hr, LLOQ 3 ng/mL): 254 ng/mL
- concentration at 0.5 h ([1]; 300 mg/kg, single 300 mg/kg RE-024-02 PO, 0.5 hr, LLOQ 10.2 nM): 860 nM
- concentration at 4 h ([1]; 300 mg/kg, single 300 mg/kg RE-024-02 PO, 4 hr, LLOQ 3 ng/mL): 21.9 ng/mL
- concentration at 4 h ([1]; 300 mg/kg, single 300 mg/kg RE-024-02 PO, 4 hr, LLOQ 10.2 nM): 74.2 nM
- concentration at 0.333 h ([1]; 700 mg/kg, single 700 mg/kg RE-024-02 PO, 0.333 hr, LLOQ 3 ng/mL): 1910 ng/mL
- concentration at 0.333 h ([1]; 700 mg/kg, single 700 mg/kg RE-024-02 PO, 0.333 hr, LLOQ 10.2 nM): 6460 nM
- concentration at 1 h ([1]; 700 mg/kg, single 700 mg/kg RE-024-02 PO, 1 hr, LLOQ 3 ng/mL): 541 ng/mL
- concentration at 1 h ([1]; 700 mg/kg, single 700 mg/kg RE-024-02 PO, 1 hr, LLOQ 10.2 nM): 1830 nM
- concentration at 4 h ([1]; 700 mg/kg, single 700 mg/kg RE-024-02 PO, 4 hr, LLOQ 3 ng/mL): 104 ng/mL
- concentration at 4 h ([1]; 700 mg/kg, single 700 mg/kg RE-024-02 PO, 4 hr, LLOQ 10.2 nM): 354 nM
- % Parent AUCAll ([2]; Cynomolgus monkey, 300 mg/kg PO, metabolite AUCall/Parent AUCall x 100): 132%
- concentration at 0.5 h ([2]; cynomolgus monkey, whole blood, po, 300 mg/kg, Concentration of compound 2 in whole blood, cynomolgus monkeys, single oral 300 mg/kg fosmetpantotenate, 0.5 hr, LLOQ 2.03 nM): 1860 nM
- concentration at 1 h ([2]; cynomolgus monkey, whole blood, po, 300 mg/kg, Concentration of compound 2 in whole blood, cynomolgus monkeys, single oral 300 mg/kg fosmetpantotenate, 1 hr, LLOQ 2.03 nM): 1970 nM
- concentration at 4 h ([2]; cynomolgus monkey, whole blood, po, 300 mg/kg, Concentration of compound 2 in whole blood, cynomolgus monkeys, single oral 300 mg/kg fosmetpantotenate, 4 hr, LLOQ 2.03 nM): 2350 nM
- concentration at 8 h ([2]; cynomolgus monkey, whole blood, po, 300 mg/kg, Concentration of compound 2 in whole blood, cynomolgus monkeys, single oral 300 mg/kg fosmetpantotenate, 8 hr, LLOQ 2.03 nM): 1150 nM
- Concentration of compound 2 in whole blood ([2]; cynomolgus monkeys, single oral 300 mg/kg fosmetpantotenate, 0.083 hr, LLOQ 2.03 nM): BQL
- Concentration of compound 2 in whole blood ([2]; cynomolgus monkeys, single oral 300 mg/kg fosmetpantotenate, 0.5 hr, LLOQ 2.03 nM, 300 mg/kg): 1210.45 nM
- Concentration of compound 2 in whole blood ([2]; cynomolgus monkeys, single oral 300 mg/kg fosmetpantotenate, 1 hr, LLOQ 2.03 nM, 300 mg/kg): 2023.57 nM
- Concentration of compound 2 in whole blood ([2]; cynomolgus monkeys, single oral 300 mg/kg fosmetpantotenate, 4 hr, LLOQ 2.03 nM, 300 mg/kg): 4441.22 nM
- Concentration of compound 2 in whole blood ([2]; cynomolgus monkeys, single oral 300 mg/kg fosmetpantotenate, 8 hr, LLOQ 2.03 nM, 300 mg/kg): 996.85 nM
- % Parent AUCAll ([3]; 300 mg/kg PO): 1,250%
- % Parent AUCAll ([3]; 700 mg/kg PO): 220%
- Whole Blood Conc. of compound 2 ([3]; single 300 mg/kg RE-024-02 PO, time 2, LLOQ 3 ng/mL, 300 mg/kg): 38.46 ng/mL and 47.10 ng/mL
- Whole Blood Conc. of compound 2 ([3]; single 300 mg/kg RE-024-02 PO, time 2, LLOQ 10.2 nM, 300 mg/kg): 130.27 nM and 159.54 nM
- Whole Blood Conc. of compound 2 ([3]; single 300 mg/kg RE-024-02 PO, time 8, LLOQ 3 ng/mL, 300 mg/kg): 5.25 ng/mL and 7.14 ng/mL
- Whole Blood Conc. of compound 2 ([3]; single 300 mg/kg RE-024-02 PO, time 8, LLOQ 10.2 nM, 300 mg/kg): 17.78 nM and 24.18 nM
- Whole Blood Conc. of compound 2 ([3]; single 700 mg/kg RE-024-02 PO, time 0.5, LLOQ 3 ng/mL, 700 mg/kg): 247.20 ng/mL and 285.00 ng/mL
- Whole Blood Conc. of compound 2 ([3]; single 700 mg/kg RE-024-02 PO, time 0.5, LLOQ 10.2 nM, 700 mg/kg): 837.31 nM and 965.35 nM
- Whole Blood Conc. of compound 2 ([3]; single 700 mg/kg RE-024-02 PO, time 2, LLOQ 3 ng/mL, 700 mg/kg): 61.80 ng/mL and 118.20 ng/mL
- Whole Blood Conc. of compound 2 ([3]; single 700 mg/kg RE-024-02 PO, time 2, LLOQ 10.2 nM, 700 mg/kg): 209.33 nM and 400.37 nM
- concentration at 4 h ([3]; 100 mg/kg, single 100 mg/kg RE-024-02 PO, time 4, LLOQ 3 ng/mL): 5.57 ng/mL
- concentration at 4 h ([3]; 100 mg/kg, single 100 mg/kg RE-024-02 PO, time 4, LLOQ 10.2 nM): 18.9 nM
- concentration at 8 h ([3]; 100 mg/kg, single 100 mg/kg RE-024-02 PO, time 8, LLOQ 3 ng/mL): 6.42 ng/mL
- concentration at 8 h ([3]; 100 mg/kg, single 100 mg/kg RE-024-02 PO, time 8, LLOQ 10.2 nM): 21.8 nM
- concentration at 2 h ([3]; 300 mg/kg, single 300 mg/kg RE-024-02 PO, time 2, LLOQ 10.2 nM): 258 nM
- concentration at 8 h ([3]; 300 mg/kg, single 300 mg/kg RE-024-02 PO, time 8, LLOQ 3 ng/mL): 9.36 ng/mL
- concentration at 8 h ([3]; 300 mg/kg, single 300 mg/kg RE-024-02 PO, time 8, LLOQ 10.2 nM): 31.7 nM
- concentration at 2 h ([3]; male, 300 mg/kg, single 300 mg/kg RE-024-02 PO, time 2, LLOQ 3 ng/mL): 76.2 ng/mL
- concentration at 0.5 h ([3]; male, 700 mg/kg, single 700 mg/kg RE-024-02 PO, time 0.5, LLOQ 3 ng/mL): 452 ng/mL
- concentration at 0.5 h ([3]; male, 700 mg/kg, single 700 mg/kg RE-024-02 PO, time 0.5, LLOQ 10.2 nM): 1530 nM
- concentration at 2 h ([3]; male, 700 mg/kg, single 700 mg/kg RE-024-02 PO, time 2, LLOQ 3 ng/mL): 105 ng/mL
- concentration at 2 h ([3]; male, 700 mg/kg, single 700 mg/kg RE-024-02 PO, time 2, LLOQ 10.2 nM): 356 nM
SMILES: COC(=O)CCNC(=O)[C@@H]1OP(=O)(O)OCC1(C)C [Compound 2]
- Whole Blood Conc. of compound 2 ([1]; single 300 mg/kg RE-024-02 PO, 0.333 hr, LLOQ 3 ng/mL, 300 mg/kg): 495 ng/mL and 550.2 ng/mL and 391.2 ng/mL
- Whole Blood Conc. of compound 2 ([1]; single 300 mg/kg RE-024-02 PO, 0.5 hr, LLOQ 3 ng/mL, 300 mg/kg): 472.2 ng/mL and 328.2 ng/mL and 282 ng/mL
